Laboratory results reported in PubChem BioAssay (NCI).
Several values for one entry are separate records, joined by “and”; a condition that tells them apart may be missing. Identical values can stand only once.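 Grown in 96-well plates, cells were treated for 48 hours with each compound at five concentrations. Insufficient inhibition: endpoint recorded as highest concentration tested. GI50: concentration for 50% inhibition of growth. TGI: total growth inhibition.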

What was measured:
Test in all cases: NCI-60 cell line screen, 48 h
[1] = tested on: K-562 leukemia
[2] = tested on: UO-31 renal
[3] = tested on: SNB-19 CNS
[4] = tested on: HCC-2998 colon
[5] = tested on: ACHN renal
[6] = tested on: NCI-H522 lung
[7] = tested on: KM12 colon
[8] = tested on: SN12C renal
[9] = tested on: M14 melanoma
[10] = tested on: HCT-116 colon
[11] = tested on: SF-539 CNS
[12] = tested on: CCRF-CEM leukemia
[13] = tested on: SNB-75 CNS
[14] = tested on: RPMI-8226 leukemia

SMILES: Cc1c(CNc2ccc(C(=O)NC(CC(=O)O)C(=O)O)cc2)ccc2nc(N)nc(N)c12 (stereo not drawn)
- TGI [1]: > 1000 µM
- TGI [2]: > 1000 µM
- TGI [3]: > 1000 µM
- TGI [4]: 21.2 µM
- TGI [5]: > 1000 µM
- GI50 [6]: 0.57 µM
- TGI [6]: > 73.8 µM and 691 µM
- TGI [7]: > 1000 µM
- TGI [8]: > 1000 µM
- TGI [9]: > 1000 µM
- TGI [10]: > 1000 µM
- TGI [11]: > 1000 µM

SMILES: O=C(c1cc(Cl)cc(Cl)c1)N1CCN(C(=O)c2cc(Cl)cc(Cl)c2)C1=S
- TGI [1]: > 50.8 µM
- TGI [2]: 6.08 µM
- TGI [12]: 21.4 µM
- TGI [3]: 37.1 µM
- TGI [4]: 31 µM
- TGI [13]: 27.8 µM
- TGI [5]: 29.6 µM
- TGI [6]: 25.7 µM
- TGI [7]: 24.8 µM
- TGI [8]: 31.1 µM
- TGI [9]: 27.3 µM
- TGI [10]: 30 µM
- TGI [11]: 22.7 µM

SMILES: Cc1cc(OCc2nnc3n2N=C(c2cc(F)c(Cl)cc2Cl)/C(=C/c2ccc(Cl)cc2)S3)ccc1Cl
- TGI [1]: 56.2 µM
- TGI [2]: > 100 µM
- TGI [12]: > 100 µM
- TGI [4]: 40.3 µM
- TGI [5]: > 100 µM
- TGI [6]: 36.4 µM
- TGI [7]: 60.2 µM
- TGI [9]: 65.5 µM
- TGI [10]: 66.9 µM
- TGI [11]: > 100 µM
- TGI [14]: 33.2 µM

SMILES: C#CCN(CC#C)C(=O)C(=O)c1c[nH]c2ccc(OC)cc12
- TGI [1]: 33.9 µM
- TGI [2]: 21.1 µM
- TGI [12]: 43.1 µM
- TGI [3]: 36.1 µM
- TGI [4]: 31 µM
- TGI [13]: 55.1 µM
- TGI [5]: 65.1 µM
- TGI [7]: 30.6 µM
- TGI [8]: 30 µM
- TGI [9]: 34.7 µM
- TGI [10]: 36.1 µM
- TGI [11]: 29.2 µM
- TGI [14]: 22.4 µM

SMILES: CC12CC(C#N)(C#N)C(C#N)(CO1)C(=N)O2 (stereo not drawn)
- TGI [1]: > 100 µM
- TGI [2]: > 100 µM
- TGI [12]: 69.1 µM
- TGI [3]: > 100 µM
- TGI [4]: > 100 µM
- TGI [13]: > 100 µM
- TGI [5]: > 100 µM
- TGI [7]: > 100 µM
- TGI [8]: > 100 µM
- TGI [9]: > 100 µM
- TGI [10]: > 100 µM
- TGI [11]: > 100 µM

SMILES: Cn1c(N)c2c3c(sc2nc1=O)CCCC3
- TGI [1]: > 75 µM
- TGI [2]: > 75 µM
- TGI [3]: > 75 µM
- TGI [4]: > 75 µM
- TGI [13]: > 75 µM
- TGI [5]: > 75 µM
- TGI [6]: > 75 µM
- TGI [7]: > 75 µM
- TGI [8]: > 75 µM
- TGI [10]: > 75 µM
- TGI [14]: > 75 µM

SMILES: O=P(O)(Cc1ccccc1)c1ccccc1-c1ccccc1
- TGI [1]: > 100 µM
- TGI [2]: > 100 µM
- TGI [12]: > 100 µM
- TGI [3]: > 100 µM
- TGI [4]: > 100 µM
- TGI [13]: > 100 µM
- TGI [5]: > 100 µM
- TGI [6]: > 100 µM
- TGI [7]: > 100 µM
- TGI [8]: > 100 µM
- TGI [9]: > 100 µM
- TGI [10]: > 100 µM
- TGI [11]: > 100 µM

SMILES: CC(=C\c1ccccc1)/C=C(\C#N)C(N)=O
- TGI [2]: > 10 µM
- TGI [4]: > 10 µM
- TGI [13]: > 10 µM
- TGI [5]: > 10 µM
- TGI [6]: > 10 µM
- TGI [7]: > 10 µM
- TGI [8]: > 10 µM
- TGI [9]: > 10 µM
- TGI [11]: > 10 µM

SMILES: CC(C)C[C@H]1[C@@H](OCc2ccccc2)COS(=O)N1[C@H](C)c1ccccc1 (stereo partly drawn)
- TGI [1]: 35.9 µM
- TGI [2]: > 100 µM
- TGI [12]: 36.4 µM
- TGI [3]: > 100 µM
- TGI [13]: > 100 µM
- TGI [5]: > 100 µM
- TGI [6]: 30.4 µM
- TGI [7]: 40.9 µM
- TGI [8]: 40.1 µM
- TGI [9]: 29.5 µM
- TGI [10]: 19 µM
- TGI [14]: 58.4 µM

SMILES: O=S(=O)(O)c1ccc(N=Nc2ccc(N=Nc3c(O)ccc4ccccc34)cc2)cc1
- TGI [1]: > 100 µM
- TGI [2]: > 100 µM
- TGI [12]: > 100 µM
- TGI [3]: > 100 µM
- TGI [4]: > 100 µM
- TGI [13]: > 100 µM
- TGI [5]: > 100 µM
- TGI [6]: > 100 µM
- TGI [7]: > 100 µM
- TGI [8]: > 100 µM
- TGI [9]: > 100 µM
- TGI [10]: > 100 µM
- TGI [14]: > 100 µM

SMILES: O=C1/C(=C/c2ccccc2)NC(=S)N1CN1CCOCC1
- TGI [1]: > 100 µM
- TGI [2]: > 100 µM
- TGI [12]: > 100 µM
- TGI [3]: > 100 µM
- TGI [13]: > 100 µM
- TGI [5]: > 100 µM
- TGI [7]: > 100 µM
- TGI [8]: > 100 µM
- TGI [9]: > 100 µM
- TGI [10]: > 100 µM
- TGI [14]: > 100 µM

SMILES: CC1C[C@]2(C)C(=O)Nc3ccccc3[C@@H]2Nc2ccccc21 (stereo partly drawn)
- TGI [1]: > 100 µM
- TGI [2]: > 100 µM
- TGI [12]: 63.4 µM
- TGI [3]: > 100 µM
- TGI [4]: 88.5 µM
- TGI [13]: > 100 µM
- TGI [5]: > 100 µM
- TGI [7]: 39.1 µM
- TGI [8]: 37.6 µM
- TGI [9]: 55.3 µM
- TGI [10]: 33.6 µM
- TGI [11]: 63.5 µM
- TGI [14]: 59.5 µM

SMILES: COc1ccc(N2C(=O)CS(=O)(=O)C2c2cccc(Oc3ccccc3)c2)cc1 (stereo not drawn)
- TGI [1]: 8.44 µM
- TGI [2]: 71.3 µM
- TGI [12]: > 100 µM
- TGI [3]: > 100 µM
- TGI [13]: 45.2 µM
- TGI [5]: 32.8 µM
- TGI [6]: 13.8 µM
- TGI [7]: > 100 µM
- TGI [8]: 21.4 µM
- TGI [9]: 22.6 µM
- TGI [10]: 5.88 µM
- TGI [11]: 15.1 µM

SMILES: CN1C(=O)C(CC=O)(C(C)(C)C)c2ccccc21 (stereo not drawn)
- TGI [1]: > 100 µM
- TGI [2]: > 100 µM
- TGI [12]: > 100 µM
- TGI [3]: > 100 µM
- TGI [4]: > 100 µM
- TGI [13]: > 100 µM
- TGI [5]: > 100 µM
- TGI [7]: > 100 µM
- TGI [8]: > 100 µM
- TGI [9]: > 100 µM
- TGI [10]: > 100 µM
- TGI [14]: > 100 µM

SMILES: CCSc1[nH]c(Nc2nc(-c3ccccc3)n(-c3ccccc3)n2)c(C(N)=O)c1C(N)=O
- TGI [1]: > 10 µM
- TGI [12]: > 10 µM
- TGI [4]: > 10 µM
- TGI [13]: > 10 µM
- TGI [7]: > 10 µM
- TGI [8]: > 10 µM
- TGI [9]: > 10 µM
- TGI [14]: > 10 µM

SMILES: O=C(NS(=O)(=O)OCC(Cl)(Cl)Cl)SCCC(F)(F)C(F)(F)C(F)(F)C(F)(F)C(F)(F)C(F)(F)F
- TGI [1]: > 100 µM
- TGI [2]: > 100 µM
- TGI [12]: 44.5 µM
- TGI [3]: 36.2 µM
- TGI [13]: 64.6 µM
- TGI [5]: > 100 µM
- TGI [6]: 41.8 µM
- TGI [7]: 43.5 µM
- TGI [8]: > 100 µM
- TGI [9]: 48.6 µM
- TGI [10]: 40.8 µM
- TGI [11]: 34.5 µM
- TGI [14]: 40.5 µM

SMILES: Nc1nc2c(ncn2Cc2ccc(CO)cc2)c(=O)[nH]1
- TGI [1]: > 100 µM
- TGI [2]: > 100 µM
- TGI [12]: > 100 µM
- TGI [3]: > 100 µM
- TGI [13]: > 100 µM
- TGI [5]: > 100 µM
- TGI [6]: > 100 µM
- TGI [7]: > 100 µM
- TGI [8]: > 100 µM
- TGI [9]: > 100 µM
- TGI [10]: > 100 µM
- TGI [11]: > 100 µM
- TGI [14]: > 100 µM

SMILES: O=C1NC(=S)NNC12c1ccccc1-c1ccccc12
- TGI [1]: > 10 µM
- TGI [2]: > 10 µM
- TGI [12]: > 10 µM
- TGI [4]: > 10 µM
- TGI [13]: > 10 µM
- TGI [7]: > 10 µM
- TGI [8]: > 10 µM
- TGI [9]: > 10 µM
- TGI [11]: > 10 µM
- TGI [14]: > 10 µM

SMILES: CCN(CC)C(=S)SS(=O)(=O)c1ccc(F)cc1
- TGI [1]: > 100 µM
- TGI [2]: 72.5 µM
- TGI [3]: > 100 µM
- TGI [4]: > 100 µM
- TGI [5]: > 100 µM
- TGI [6]: 0.505 µM
- TGI [7]: > 100 µM
- TGI [8]: > 100 µM
- TGI [9]: 60.5 µM
- TGI [10]: > 100 µM
- TGI [11]: 52.4 µM
- TGI [14]: 55.5 µM
